Legend:
[1] = system: radiation-induced dermatitis; test: Mouse model of radiation-induced dermatitis: histopathology (H&E, Masson's Trichrome, CD11b, F4/80); assay type: in vivo, C57BL/6J mice
Protocol: In vivo study: mouse model of radiation-induced dermatitis: a 30-day study was conducted using C57BL/6J mice (Jackson Laboratories, Bar Harbor, Me.) to assess the efficacy of dermaprazole in mitigating radiation-induced dermatitis. The experiment consisted of 1 group receiving no radiation (Group 1) and 5 groups receiving radiation (Groups 2 to 6) (Table 2) from an X-ray source. First, all the animals were prepared for experiment by removing hair from the flank area using an electric shaver and hair removal cream. The lack of skin irritation from the shaving procedure was visually confirmed prior to randomization. Twenty-four hours later, radiation was delivered to pre-defined area (2×2 cm) on the flank of the animals in Groups 2 to 6. To induce dermatitis, the animals were anesthetized using 4% isoflurane in oxygen until a deep plane of anesthesia was achieved. Subsequently, the animals were placed under lead shielding (Braintree Scientific, Braintree, Mass.) to protect the remaining part of the body and expose the flank to a total radiation dose of 30 Gy fractionated as 2×15 Gy on study days 0 and 7 using the same settings described above. Dermaprazole was evaluated in a prophylactic (treatment schedule from day 1 to day 30) and therapeutic (treatment schedule from day 10 to day 30) course. For the prophylactic course, low dose (1%, Group 2) and high dose (2%, Group 3) of dermaprazole were evaluated. For the therapeutic course (Group 4), only the high dose was evaluated. Similarly, the sham (Group 1) and vehicle (Group 5) groups were treated with placebo cream containing no active drug starting from day 0 of the study. As a positive treatment control, 1% hydrocortisone (Group 6) was applied starting from day 0. […] The photographs were blindly evaluated and scored by a certified dermatologist using Common Terminology Criteria for Adverse Events (CTCAE; version 4.0)(79): 0=normal skin appearance; 1=mild erythema; 2=moderate-to-severe erythema; 3=desquamation of 25-50% of irradiated area; 4=desquamation of >50% irradiated area; and 5=frank ulcer. […]

[2] = system: radiation-induced dermatitis; test: Mouse model of radiation-induced dermatitis: skin appearance and dermatitis scoring; assay type: in vivo, C57BL/6J mice
Protocol: In vivo study: mouse model of radiation-induced dermatitis: a 30-day study was conducted using C57BL/6J mice (Jackson Laboratories, Bar Harbor, Me.) to assess the efficacy of dermaprazole in mitigating radiation-induced dermatitis. The experiment consisted of 1 group receiving no radiation (Group 1) and 5 groups receiving radiation (Groups 2 to 6) (Table 2) from an X-ray source. First, all the animals were prepared for experiment by removing hair from the flank area using an electric shaver and hair removal cream. The lack of skin irritation from the shaving procedure was visually confirmed prior to randomization. […] Dermaprazole was evaluated in a prophylactic (treatment schedule from day 1 to day 30) and therapeutic (treatment schedule from day 10 to day 30) course. For the prophylactic course, low dose (1%, Group 2) and high dose (2%, Group 3) of dermaprazole were evaluated. For the therapeutic course (Group 4), only the high dose was evaluated. […] The photographs were blindly evaluated and scored by a certified dermatologist using Common Terminology Criteria for Adverse Events (CTCAE; version 4.0)(79): 0=normal skin appearance; 1=mild erythema; 2=moderate-to-severe erythema; 3=desquamation of 25-50% of irradiated area; 4=desquamation of >50% irradiated area; and 5=frank ulcer. […]

[3] = system: chemotherapy-resistant human cancer cell lines; details: PPI pretreatment vs no pretreatment; melanoma, colon, breast and ovarian cancer cell lines; cited from earlier work
[4] = system: bleomycin-induced lung injury; details: systemic administration; cited from earlier work

| SMILES | ulceration (H&E stain) ([1]; day 30) | collagen accumulation (Masson's Trichrome stain) ([1]; days 16 and 30) | CD11b and F4/80 positive inflammatory cells at the injury site ([1]; immunohistochemical staining of irradiated skin) | skin necrosis ([2]; 16 days and 30 days post-irradiation) | animals with no effect on healing of the wounds ([2]; once daily topical, 30-day model) | change of IC50 values of cisplatin, vinblastine and 5-fluorouracil [3] | lung inflammation and fibrosis [4] |
| --- | --- | --- | --- | --- | --- | --- | --- |
| C[C@]12CCC(=O)C=C1CC[C@@H]1[C@@H]2[C@@H](O)C[C@@]2(C)[C@H]1CC[C@]2(O)C(=O)CO [1% hydrocortisone, hydrocortisone] | ulceration is seen by day 30 | Increased collagen deposition | Increased number of inflammatory cells | severe skin necrosis | 90% |  |  |
| COc1ccc2nc([S@@+]([O-])Cc3ncc(C)c(OC)c3C)[nH]c2c1 [esomeprazole] |  |  |  |  |  | order of magnitude reduction | suppresses lung inflammation and fibrosis |

From patent US20210052563A1, “PROTON PUMP INHIBITORS AND METHODS OF USE IN CHEMORADIATION-INDUCED TISSUE INFLAMMATION AND SCARRING” (Baylor College of Medicine, priority 2018, published 2021)
